From article PMC10746280, “Bacterial efflux pump modulators prevent bacterial growth in macrophages and under broth conditions that mimic the host environment” (mBio, 2023)

How the values were obtained:
[1] = tested on: S. Typhimurium SL1344 (sifB::gfp) in RAW 264.7 macrophages; assay: SAFIRE macrophage assay: intracellular bacterial load (GFP signal within macrophages); assay type: cell-based, Salmonella enterica serotype Typhimurium
Summary of the method: (§1)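 RAW 264.7 macrophages infected with S. Typhimurium SL1344 sifB::gfp (MOI ~30), gentamicin 40 µg/mL, then compound from 2 h to 18 h post-infection. Confocal imaging with MitoTracker and DAPI; toxicity as adherent MitoTracker-positive macrophage count, bacterial load as GFP+ macrophage area.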

RAW 264.7 macrophages = assay: SAFIRE macrophage assay: host toxicity (adherent macrophage count, morphology); assay type: cell-based
Summary of the method: as §1

[2] = tested on: Bacillus subtilis expressing mNeongreen-FtsZ; assay: Membrane voltage disruption assay (mNeongreen-FtsZ delocalization); assay type: cell-based; conditions: 150 µM, 15 min, LPM 5.5
Excerpt: We therefore monitored membrane integrity in the presence of EPM analogs by evaluating membrane voltage with mNeongreen-FtsZ ([28][–][30]). The FtsZ protein localizes to the bacterial septum based on membrane potential, and rapid delocalization of fluorescent FtsZ reporters occurs when voltage across the membrane is disrupted ([31], [32]). We monitored mNeongreen-FtsZ localization in a Gram-positive bacterium, Bacillus subtilis, to eliminate the potentially confounding issue of the passage of EPM analogs through the outer membrane at different rates ([24], [33][–][36]).
To determine whether exposure to compound dislodges FtsZ from the cell septum, an overnight culture of Bacillus subtilis grown in LPM at pH 5.5 (LPM 5.5) expressing mNeonGreen-FtsZ (strain DK5092) was exposed to DMSO, CCCP (100 µM) or an EPM analog (150 µM) for 15 or 30 min, as indicated. Bacteria were immobilized on 1% agarose pads made with LPM under a coverslip. To set the threshold value for the FtsZ septal ring, mNeonGreen signal (excitation 488 nm, emission 525 nm) from at least 20 DMSO-treated cells was quantified using a CV1000 confocal microscope with a 100× oil, NA = 1.4 objective. A background-subtracted image was made by subtracting the median intensity from full original images. A signal threshold of ≥400 arbitrary units per pixel was set (Fig. 4B). Then, we manually confirmed that mNeonGreen signal above threshold was at the center of the bacterial rod. We examined 50 cells per sample from at least three biological replicates (≥150 cells per condition). A MATLAB program (https://github.com/Betterton-Lab/FtsZ-Quantification) counted the number of pixels above threshold per cell and averaged this value across all cells for each condition and this value is reported in the graph (Fig. 4C).

S. Typhimurium = assay: Checkerboard growth assays with antibiotics in LPM 5.5 (FICI and MuSyC analyses); assay type: cell-based; parameters: Antibiotic MIC Combination: unit not given here; EPM MIC Combination: unit: µM; conditions: for log10(α1) [95% CI] (log-fold-change in potency of EPM due to the antibiotic) / Βobs [95% CI] (proportion increase in maximal efficacy of the antibiotic) / log10(α2) [95% CI] (log-fold-change in potency of the antibiotic due to the EPM): MuSyC fit; for Antibiotic MIC Combination / EPM MIC Combination / FICI value: LPM 5.5
Protocol: To examine whether the EPM analogs interact additively or synergistically with antibiotics, checkerboard growth assays were carried out in LPM 5.5. We compared three antibiotics (ciprofloxacin, doxycycline, erythromycin) and three EPM analogs (CU032, CU187, CU232) and the EPM35 parent compound (Fig. 6A). Standard fractional inhibitory concentration index (FICI) analyses supported synergy between the EPM analogs and ciprofloxacin (Fig. 6B). Since FICI values cannot distinguish between synergy due to changes in potency (activity) versus efficacy (the extent of the effect) ([42], [43]), we used the MuSyC synergy algorithm to measure EPM-antibiotic synergy ([44], [45]). The data were well fit by the MuSyC equation, with an R^2 of greater than 0.96 for all checkerboards (Table S2). […] Moreover, the consistency in the synergy of potency values across the antibiotics with different EPM analogs points toward a shared mechanism of action: the EPMs could modify the pharmacodynamics of the efflux process and prevent export of specific substrates through interactions with AcrB. We posit that the EPMs differentially reduce antibiotic export resulting in a higher effective intracellular concentration of the antibiotic.
Overnight cation-adjusted MHB-grown cultures of SL1344 or SA10801 were diluted in MHB or LPM 5.5 to an optical density at 600 nm (OD600) of 0.01 and distributed into polystyrene 96-well flat-bottom plates. EPM analogs were added at concentrations up to 300 µM, near the limit of solubility. The antibiotics ciprofloxacin, doxycycline, and erythromycin were added up to concentrations of 2 µM, 2 µM, and 8 µM, respectively. The final DMSO concentration was at or below 2% in all wells. Plates were grown at 37°C with shaking for 18 h and OD600 was monitored (BioTek Synergy H1, BioTek Eon). Each experiment was performed with biological triplicate or higher as indicated. Percent growth was determined by normalizing to OD600 reads in wells containing no D66 or antibiotic. Checkerboards in LPM 5.5 medium were performed with culture grown overnight in LB and diluted to an OD600 of 0.01 in LPM 5.5 and compounds/antibiotics were added as previously described. MuSyC analysis was pursued as previously described ([44], [45]). Briefly, the 2D Hill equation was fit to the normalized growth inhibition data from the checkerboards using a bounded non-linear least square regression algorithm. A Monte Carlo sampling method was used to compute the 95% CI in the parameter fits from three biological replicates. The bounds on the parameters minimal and maximal efficacy of the antibiotics and EPMs (E0,Emax) were [0.99,1.01] and [0,1], respectively ([44], [45]).

[3] = biological target: Klebsiella pneumoniae AcrB multidrug efflux pump; parameters: method as in PMID 37067435; conditions: K. pneumoniae AcrB; cited from earlier work

## NC1CCN(CC(O)COc2ccc(Cl)cc2)CC1 (stereo not shown) [CU187]
[1]; 5 uM, 'Toxic' given instead of a score
  5 uM Avg Antibacterial Score: 25
[1]; 25 uM, 'Toxic' given instead of a score
  25 uM Avg Antibacterial Score: 24
[1]; Salmonella enterica, TYPHIMURIUM, RAW264.7, read-out: SAFIRE IC50
  IC50: 0.0004 µM
RAW 264.7 macrophages; 5 uM
  5 uM Avg Cell # Score: 121
RAW 264.7 macrophages; 25 uM
  25 uM Avg Cell # Score: 98
[2]
  effect on mNeongreen-FtsZ ring size / localization: did not alter FtsZ localization
S. Typhimurium; Ciprofloxacin
  log10(α1) [95% CI] (log-fold-change in potency of EPM due to the antibiotic): 0.33 [0.19,0.37]
  Βobs [95% CI] (proportion increase in maximal efficacy of the antibiotic): 0.01 [-0.01,0.04]
S. Typhimurium; Doxycycline
  log10(α1) [95% CI] (log-fold-change in potency of EPM due to the antibiotic): 0.32 [-0.07,0.39]
  log10(α2) [95% CI] (log-fold-change in potency of the antibiotic due to the EPM): 0.46 [0.37,0.47]
  Βobs [95% CI] (proportion increase in maximal efficacy of the antibiotic): 0.02 [-0.0,0.02]
S. Typhimurium; Erythromycin
  log10(α2) [95% CI] (log-fold-change in potency of the antibiotic due to the EPM): 0.93 [0.85,0.96]
  Βobs [95% CI] (proportion increase in maximal efficacy of the antibiotic): 0.04 [0.03,0.04]
S. Typhimurium; ciprofloxacin (CIPRO) MIC in combination with the EPM
  Antibiotic MIC Combination: 0.2
S. Typhimurium; doxycycline (DOXY) MIC in combination with the EPM
  Antibiotic MIC Combination: 1
S. Typhimurium; with ciprofloxacin (CIPRO)
  EPM MIC Combination: 66
  FICI value: 0.27
S. Typhimurium; with doxycycline (DOXY)
  EPM MIC Combination: 100
  FICI value: 0.45
S. Typhimurium; with erythromycin (ERY)
  EPM MIC Combination: 100
  FICI value: 0.58

## CC[C@H]1OC(=O)[C@H](C)[C@@H](O[C@H]2C[C@@](C)(OC)[C@@H](O)[C@H](C)O2)[C@H](C)[C@@H](O[C@@H]2O[C@H](C)C[C@H](N(C)C)[C@H]2O)[C@](C)(O)C[C@@H](C)C(=O)[C@H](C)[C@@H](O)[C@]1(C)O [erythromycin]
[3]
  Kd: 14.4 µM
